The text below walks through data of US9981972B2, “N-hydroxy bicyclic hydantoin carbamates as tools for identification of serine hydrolase targets” (ABIDE THERAPEUTICS, INC., priority 2014, dated 2018).

Type in all cases: biochemical
Experiment [1] concerns FP-sensitive SHs in the mouse brain membrane proteome. The experiment can be described thus: Gel-based competitive ABPP in vitro, mouse brain membrane proteome, anti-targets. The following applies: for Anti-target(s) 0.1 μM: SHs with at least 50% inhibition at 0.1 μM compound; for Anti-target(s) 1 μM: SHs with at least 50% inhibition at 1 μM compound; for Anti-target(s) 10 μM: SHs with at least 50% inhibition at 10 μM compound; for Anti-target(s) 100 μM: SHs with at least 50% inhibition at 100 μM compound. In outline: (§1)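 Mouse brain membrane proteome (1 mg/mL in DPBS) was treated with compound (0.1-100 μM) for 30 min at 37 °C, then labeled with FP-Rh (2 μM final, 30 min, 25 °C). Bands were resolved by SDS-PAGE and scanned in-gel, with inhibition taken from band optical density versus DMSO. Targets counted as active or anti-targets at ≥50% inhibition.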

The next experiment deals with T1, human LYPLA2 (Homo sapiens, UniProt O95372).
T1 construct: endogenous human LYPLA1/2 in a HeLa soluble proteome; endogenous in cells; host or cells: HeLa (soluble proteome in vitro; cultured cells in situ)
As to the kind of experiment: IC50 by gel-based competitive ABPP in vitro, soluble HeLa cell proteome. Particulars: human LYPLA isoform, three replicates; Table 2 prints no unit, nM; read-out: LYPLA2 IC50. How it is done: (§2) Assay Overview: The purpose of this assay was to determine IC50 values of powder samples of test compounds for enzyme of interest activity, and anti-targets in a complex proteomic lysate using a gel-based competitive ABPP assay. In this assay, a complex proteome was incubated with test compound followed by reaction with FP-Rh and SDS-PAGE analysis as described above.
(§3) Protocol Summary: Soluble HeLa cell proteome (50 μL reaction volume, 1 mg/mL in DPBS) or mouse brain membrane proteome (50 μL reaction volume, 1 mg/mL in DPBS) was treated with varying concentrations of test compound (1 μL of a 50× stock in DMSO) for 30 minutes at 37° C. FP-Rh (1 μL of 50× stock in DMSO) was added to a final concentration of 2 μM. The reaction was incubated for 30 minutes at 25° C., quenched with 16 μL 4×SDS-PAGE loading buffer (reducing), separated by SDS-PAGE and visualized by in-gel fluorescent scanning. The percentage activity remaining was determined by measuring the integrated optical density of the enzymes of interest, and anti-target bands relative to a DMSO-only (no compound) control. IC50 values were determined from dose-response curves from three replicates at each inhibitor concentration: 1, 10, 100, 1000, 10000 nM and 0.01, 0.1, 1, 10, 100, 1000, 10000, 50000, and 100000 nM.

The next experiment addresses T2, human LYPLA1 (Homo sapiens, UniProt O75608).
T2 construct: endogenous human LYPLA1/2 in a HeLa soluble proteome; endogenous in cells; host or cells: HeLa (soluble proteome in vitro; cultured cells in situ)
Described as above. Particulars: human LYPLA isoform, three replicates; Table 2 prints no unit, nM; read-out: LYPLA1 IC50. How it is done:
as §2, §3

The target of the next experiment is T3, LYPLA2 (Mus musculus, UniProt Q9WTL7).
T3 construct: a complex proteome endogenously expressing LYPLA1/2 was incubated with test compound; from tissue; host or cells: mouse brain, membrane fraction
As to the kind of experiment: Gel-based competitive ABPP in vitro, mouse brain membrane proteome. The following applies: for inhibition at 0.1 µM: 0.1 μM compound, read-out: LYPLA2 % INH 0.1 μM; for inhibition at 0.1 µM / inhibition at 1 µM / inhibition at 10 µM / inhibition at 100 µM: 30 min, one replicate; for inhibition at 1 µM: 1 μM compound, read-out: LYPLA2 % INH 1 μM; for inhibition at 10 µM: 10 μM compound, read-out: LYPLA2 % INH 10 μM; for inhibition at 100 µM: 100 μM compound, read-out: LYPLA2 % INH 100 μM. In outline:
as §1

The target in the next experiment is T4, LYPLA1 (Mus musculus, UniProt P97823).
T4 construct: a complex proteome endogenously expressing LYPLA1/2 was incubated with test compound; from tissue; host or cells: mouse brain, membrane fraction
The description is as above. Particulars: for inhibition at 0.1 µM: 0.1 μM compound, read-out: LYPLA1 % INH 0.1 μM; for inhibition at 0.1 µM / inhibition at 1 µM / inhibition at 10 µM / inhibition at 100 µM: 30 min, one replicate; for inhibition at 1 µM: 1 μM compound, read-out: LYPLA1 % INH 1 μM; for inhibition at 10 µM: 10 μM compound, read-out: LYPLA1 % INH 10 μM; for inhibition at 100 µM: 100 μM compound, read-out: LYPLA1 % INH 100 μM. In outline: as §1

For another experiment, the target named is T5, mABHD3 (Mus musculus, UniProt Q91ZH7).
T5 construct: expressed in transfected cells; host or cells: HEK293T, transient transfection, pCMV-Sport6; lysate used in vitro
T5 sequence (Q91ZH7 1-411): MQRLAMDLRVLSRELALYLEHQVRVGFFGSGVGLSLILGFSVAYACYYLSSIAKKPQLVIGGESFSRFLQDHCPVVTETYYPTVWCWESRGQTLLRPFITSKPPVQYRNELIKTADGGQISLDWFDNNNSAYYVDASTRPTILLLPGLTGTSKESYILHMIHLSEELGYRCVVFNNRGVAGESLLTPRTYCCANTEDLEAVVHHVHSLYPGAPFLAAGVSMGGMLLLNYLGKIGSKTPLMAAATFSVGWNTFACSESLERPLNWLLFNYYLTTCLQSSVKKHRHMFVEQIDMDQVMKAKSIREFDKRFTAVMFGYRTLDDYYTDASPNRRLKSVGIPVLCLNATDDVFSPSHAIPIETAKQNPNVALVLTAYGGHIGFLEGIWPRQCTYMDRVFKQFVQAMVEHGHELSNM
As to the kind of experiment: Gel-based competitive ABPP, recombinant enzyme in transfected HEK293T cell lysates. The following applies: transfected HEK293T lysates, read-out: mABHD3 in vitro potency (IC50). On the procedure:
(§4) HEK293T cells were seeded at 2×10^5 per well on 6 well plates and grown for 48 h. They were then transfected with mABHD3 (pCMV-Sport6), hABHD4 (pcDNA3.1/myc-his), hPPT1 (pCMV6-XL5), or hPPT1 S115A (pCMV6-XL5), by incubating 0.5 μg of DNA with 3 μL of PEI MAX (1 mg/mL, Polysciences, Inc) in serum-free DMEM for 30 min, then adding them to cells. After 48 h cells were either treated with compound in situ, as described above, or harvested for in vitro studies. The […] PPT1 mutation was introduced using QuikChange II Site Directed Mutagenesis Kit (Agilent) with the following primers: […]
Human ABHD3 and ABHD4 were recombinantly expressed by transient transfection in HEK293T cells, and the cell lysates were combined to provide a convenient assay for monitor inhibition of both enzymes by gel-based ABPP (see FIG. 8A).

Another experiment addresses T6, ABHD4 (Homo sapiens, UniProt Q8TB40).
T6 sequence (Q8TB40 1-342): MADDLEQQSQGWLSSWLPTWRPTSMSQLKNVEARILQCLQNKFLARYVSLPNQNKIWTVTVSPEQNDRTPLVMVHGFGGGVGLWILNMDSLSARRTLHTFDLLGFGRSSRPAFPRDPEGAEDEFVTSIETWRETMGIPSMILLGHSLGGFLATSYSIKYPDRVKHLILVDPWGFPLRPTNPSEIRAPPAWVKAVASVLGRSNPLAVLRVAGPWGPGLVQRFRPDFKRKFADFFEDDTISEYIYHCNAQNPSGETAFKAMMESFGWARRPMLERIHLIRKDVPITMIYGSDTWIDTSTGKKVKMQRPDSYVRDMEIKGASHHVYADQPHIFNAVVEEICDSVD
The description is as above. Further details: myc-his; expressed in transfected cells; host or cells: HEK293T, transient transfection, pcDNA3.1/myc-his; lysate used in vitro. Particulars: recombinant; for IC50: transfected HEK293T lysates, read-out: hABHD4 in vitro potency (IC50). How it is done: as §4
Human ABHD3 and ABHD4 were recombinantly expressed by transient transfection in HEK293T cells, and the cell lysates were combined to provide a convenient assay for monitor inhibition of both enzymes by gel-based ABPP (see FIG. 8A). […]

The mark [2] stands for this setting: 20 μM, mouse brain (mem) proteome.

Entries after “also recorded” stand apart in the source; their conditions may differ. Where only a bound is given, the exact number is not on record here.

T3 sequence (Q9WTL7 whole entry): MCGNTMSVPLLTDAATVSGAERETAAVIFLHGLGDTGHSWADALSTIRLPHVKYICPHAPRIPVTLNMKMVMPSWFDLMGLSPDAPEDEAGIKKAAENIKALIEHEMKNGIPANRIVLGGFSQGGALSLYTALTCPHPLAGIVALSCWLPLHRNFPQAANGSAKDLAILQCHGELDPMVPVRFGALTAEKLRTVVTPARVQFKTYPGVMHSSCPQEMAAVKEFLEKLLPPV
T4 sequence (P97823 whole entry): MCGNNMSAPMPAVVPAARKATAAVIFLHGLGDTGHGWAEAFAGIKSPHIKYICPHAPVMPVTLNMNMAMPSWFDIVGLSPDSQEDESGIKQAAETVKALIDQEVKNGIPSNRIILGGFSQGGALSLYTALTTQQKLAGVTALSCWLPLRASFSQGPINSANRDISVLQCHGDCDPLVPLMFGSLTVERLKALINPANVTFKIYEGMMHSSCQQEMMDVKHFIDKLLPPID
T1 sequence (O95372 whole entry): as the sequence (Q9WTL7 whole entry) above, with N154A, T193S counted along it
T2 sequence (O75608 whole entry): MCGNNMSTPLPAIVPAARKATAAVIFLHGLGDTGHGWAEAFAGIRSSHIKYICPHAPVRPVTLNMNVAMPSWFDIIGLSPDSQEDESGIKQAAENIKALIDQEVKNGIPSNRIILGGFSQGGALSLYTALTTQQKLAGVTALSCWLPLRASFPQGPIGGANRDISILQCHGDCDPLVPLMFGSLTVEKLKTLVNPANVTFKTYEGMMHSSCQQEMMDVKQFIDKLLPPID

The term IC50 denotes the concentration that inhibits the measured activity by half. Regarding `CC(C)(C)CC(=O)N1CCN2C(=O)N(OC(=O)N3CCC(CCc4ccc(Cl)cc4)CC3)C(=O)C2C1` (stereo not shown) [Compound 4, 7-(3,3-dimethylbutanoyl)-1,3-dioxohexahydroimidazo[1,5-a]pyrazin-2(3H)-yl 4-(4-chlorophenethyl)piperidine-1-carboxylate], in experiment [1], the “Anti-target(s) 0.1 μM” value is “ABHD6”, the “Anti-target(s) 1 μM” value is “FAAH,; also recorded: ABHD6”, the “Anti-target(s) 10 μM” value is “FAAH,; also recorded: ABHD12,; also recorded: MAGL,; also recorded: ABHD6” and the “Anti-target(s) 100 μM” value is “FAAH,; also recorded: ABHD12,; also recorded: ABHD4,; also recorded: MAGL,; also recorded: ABHD6”. For the same molecule, the IC50 on human LYPLA2 amounted to 217 nM. In addition, at human LYPLA1, the IC50 came to 92 nM. At LYPLA2, the inhibition at 0.1 µM stood at 80%, the inhibition at 1 µM amounted to 100%, the inhibition at 10 µM is 100% and the inhibition at 100 µM came out at 100%. For the same molecule, at LYPLA1, the inhibition at 0.1 µM came to 80%, the inhibition at 1 µM was determined as 100%, the inhibition at 10 µM is 100% and the inhibition at 100 µM is 100%.
`O=C(ON1C(=O)C2CN(C(=O)c3ccc(Br)cc3)CCN2C1=O)N1CCC(CCc2ccc(Cl)cc2)CC1` (stereo not shown) [Compound 7, 7-(4-bromobenzoyl)-1,3-dioxohexahydroimidazo[1,5-a]pyrazin-2(3H)-yl 4-(4-chlorophenethyl)piperidine-1-carboxylate]: in experiment [1], the “Anti-target(s) 0.1 μM” value is reported as “ABHD6”, the “Anti-target(s) 1 μM” value is listed as “ABHD6”, the “Anti-target(s) 10 μM” value is given as “FAAH,; also recorded: ABHD12,; also recorded: ABHD6” and the “Anti-target(s) 100 μM” value is listed as “FAAH,; also recorded: ABHD12,; also recorded: ABHD4,; also recorded: MAGL,; also recorded: ABHD6”. Further, the IC50 at human LYPLA2 was 726 nM. In addition, on human LYPLA1, the IC50 came out at 306 nM. In addition, at LYPLA2, the inhibition at 0.1 µM amounted to 0%, the inhibition at 1 µM amounted to 80%, the inhibition at 10 µM was 95% and the inhibition at 100 µM was found to be 100%. Moreover, on LYPLA1, the inhibition at 0.1 µM came to 0%, the inhibition at 1 µM was 80%, the inhibition at 10 µM turned out to be 95% and the inhibition at 100 µM was determined as 100%.
`COC(=O)C1CCN(C(=O)ON2C(=O)C3CN(Cc4ccc(Oc5ccccc5)cc4)CCN3C2=O)CC1` (stereo not shown) [Compound 31, 1-(1,3-dioxo-7-(4-phenoxybenzyl)hexahydroimidazo[1,5-a]pyrazin-2(3H)-yl) 4-methyl piperidine-1,4-dicarboxylate]: the values for the IC50 at mABHD3 and on ABHD4 were more than 10000 nM and 8200 nM, respectively. In addition, on LYPLA2 (setting [2]), the “LYPLA2 in vitro enzyme activity, % @ 20 μM” value is listed as 0% @. Moreover, on LYPLA1 (setting [2]), the “LYPLA1 in vitro enzyme activity, % @ 20 μM” value worked out at 0% @.
In the case of `O=C(ON1C(=O)C2CN(Cc3cccc(Oc4ccccc4)c3)CCN2C1=O)N1CCC(CCc2ccc(Cl)cc2)CC1` (stereo not shown) [Compound 35, 1,3-dioxo-7-(3-phenoxybenzyl)hexahydroimidazo[1,5-a]pyrazin-2(3H)-yl 4-(4-chlorophenethyl)piperidine-1-carboxylate], the IC50 is more than 10000 nM on mABHD3 and 1000 nM on ABHD4.
For `COc1ccc(N2CCN(C(=O)ON3C(=O)C4CN(Cc5cccc(Oc6ccccc6)c5)CCN4C3=O)CC2)cc1` (stereo not shown) [Compound 36, 1,3-dioxo-7-(3-phenoxybenzyl)hexahydroimidazo[1,5-a]pyrazin-2(3H)-yl 4-(4-methoxyphenyl)piperazine-1-carboxylate], the IC50 was more than 10000 nM at mABHD3 and 200 nM at ABHD4. Moreover, the “preference ABHD4 over ABHD3” value at ABHD4 (combined HEK293T lysates, gel-based ABPP) was “preferentially inhibited ABHD4 over ABHD3”.
